Results from patent US20260008783A1, “MODULATORS OF FSHR AND USES THEREOF” (Celmatix Inc., priority 2022, published 2026).

Molecular target: T1, Follicle Stimulating Hormone Receptor (FSHR) (Homo sapiens, UniProt P23945)
T1 construct: HA (N); expressed in transfected cells; host or cells: CHO-K1, transient transfection, pHM6 vector (CMV promoter)
T1 sequence (P23945 18-695): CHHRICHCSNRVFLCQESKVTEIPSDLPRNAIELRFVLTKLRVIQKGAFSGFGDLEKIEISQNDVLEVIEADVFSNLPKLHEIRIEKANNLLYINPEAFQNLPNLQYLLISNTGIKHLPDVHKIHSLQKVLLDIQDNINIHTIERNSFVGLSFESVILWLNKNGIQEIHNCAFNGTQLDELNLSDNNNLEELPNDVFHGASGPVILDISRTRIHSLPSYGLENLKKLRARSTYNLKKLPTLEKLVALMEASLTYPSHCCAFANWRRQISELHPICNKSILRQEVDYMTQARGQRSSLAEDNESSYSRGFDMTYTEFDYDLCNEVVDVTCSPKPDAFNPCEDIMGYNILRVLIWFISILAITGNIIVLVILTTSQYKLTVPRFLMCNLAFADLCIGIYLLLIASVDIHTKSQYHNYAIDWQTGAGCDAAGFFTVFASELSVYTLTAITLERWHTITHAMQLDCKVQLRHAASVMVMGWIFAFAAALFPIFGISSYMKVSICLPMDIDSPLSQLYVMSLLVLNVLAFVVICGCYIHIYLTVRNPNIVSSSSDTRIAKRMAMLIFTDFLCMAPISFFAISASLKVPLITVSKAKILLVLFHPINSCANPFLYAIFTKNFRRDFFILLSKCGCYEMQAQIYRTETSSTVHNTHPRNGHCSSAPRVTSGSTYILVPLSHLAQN
Assay: HTRF cAMP agonist assay, FSHR, transiently transfected CHO-K1 cells
Type: cell-based
Details: CHO-K1 cells transiently expressing human FSHR, read-out: IC50 FSHR LANCE CAMP

IC50	SMILES
42 nM	COc1cc(C(N)=O)cc(-c2cc3c(cc2OC)COc2c(C(=O)N(C)C(C)(C)C)nn(-c4cc(Cl)cc(Cl)c4)c2-3)n1 [Compound 11-02, N-tert-butyl-8-(4-carbamoyl-6-methoxy-2-pyridyl)-1-(3,5-dichlorophenyl)-7-methoxy-N-methyl-5H-isochromeno[4,3-c]pyrazole-3-carboxamide]
75 nM	COc1cc(C(N)=O)cc(-c2cc3c(cc2OC)CSc2c(C(=O)N(C)C(C)(C)C)nn(-c4cc(Cl)cc(Cl)c4)c2-3)n1 [Compound 11-03, N-tert-butyl-8-(4-carbamoyl-6-methoxy-2-pyridyl)-1-(3,5-dichlorophenyl)-7-methoxy-N-methyl-5H-isothiochromeno[4,3-c]pyrazole-3-carboxamide]
14.8 nM	COc1cc2c(cc1-c1cncc(C(N)=O)c1)-c1c(c(C(=O)N3[C@H](C)CN(C)C[C@@H]3C)nn1-c1cc(Cl)cc(Cl)c1)CC2 [Compound 12-01]
5.07 nM	COc1cc2c(cc1-c1cncc(C(N)=O)c1)-c1c(c(C(=O)N3[C@H](C)CNC[C@@H]3C)nn1-c1cc(Cl)cc(Cl)c1)OC2 [Compound 12-02, 5-[1-(3,5-dichlorophenyl)-3-[(2R,6S)-2,6-dimethylpiperazine-1-carbonyl]-7-methoxy-5H-isochromeno[4,3-c]pyrazol-8-yl]pyridine-3-carboxamide]
5.09 nM	COc1cc2c(cc1-c1cncc(C(N)=O)c1)-c1c(c(C(=O)N3COCC3(C)C)nn1-c1cc(Cl)cc(Cl)c1)OC2 [Compound 12-04]
15.4 nM	COc1cc2c(cc1-c1cncc(C(N)=O)c1)-c1c(c(C(=O)N3[C@H](C)CNC[C@@H]3C)nn1-c1cc(Cl)cc(Cl)c1)S(=O)(=O)C2 [Compound 12-05]
21.2 nM	COc1cc2c(cc1-c1cncc(C(N)=O)c1)-c1c(c(C(=O)N3COCC3(C)C)nn1-c1cc(Cl)cc(Cl)c1)S(=O)(=O)C2 [Compound 12-07]
26.6 nM	COc1cc2c(cc1-c1cncc(C(N)=O)c1)-c1c(c(C(=O)N3COCC3(C)C)nn1-c1cc(Cl)cc(Cl)c1)CCO2 [Compound 12-11]
228 nM	COc1cc2c(cc1-c1cncc(C(N)=O)c1)-c1c(c(C(=O)N3CCNC(=O)C3(C)C)nn1-c1cc(Cl)cc(Cl)c1)S(=O)(=O)C2 [Compound 12-12]
4.98 nM	COc1cc2c(cc1-c1cncc(C(N)=O)c1)-c1c(c(C(=O)N3[C@H](C)CNC[C@@H]3C)nn1-c1cc(Cl)cc(Cl)c1)SC2 [Compound 12-13]
3.09 nM	COc1cc2c(cc1-c1cncc(C(N)=O)c1)-c1c(c(C(=O)N3COCC3(C)C)nn1-c1cc(Cl)cc(Cl)c1)SC2 [Compound 12-15]
20.9 nM	COc1cc2c(cc1-c1cncc(C(N)=O)c1)-c1c(c(C(=O)N3CCNC(=O)C3(C)C)nn1-c1cc(Cl)cc(Cl)c1)SC2 [Compound 12-16]
66.8 nM	COc1cc2c(cc1-c1cncc(C(N)=O)c1)-c1c(c(C(=O)N3CCNC(=O)C3(C)C)nn1-c1cc(Cl)cc(Cl)c1)OC2 [Compound 12-18]
36.7 nM	COc1cc2c(cc1-c1cncc(C(N)=O)c1)-c1c(c(C(=O)N3CCNC(=O)C3(C)C)nn1-c1ccsc1)CC2 [Compound 12-23, 5-[3-(2,2-dimethyl-3-oxo-piperazine-1-carbonyl)-7-methoxy-1-(3-thienyl)-4,5-dihydrobenzo[g]indazol-8-yl]pyridine-3-carboxamide]
6740 nM	CC1(C)C(=O)NCCN1C(=O)c1nn(-c2ccccn2)c2c1CCc1ccc(-c3cccnc3)cc1-2 [Compound 13-01, 3,3-dimethyl-4-[1-(2-pyridyl)-8-(3-pyridyl)-4,5-dihydrobenzo[g]indazole-3-carbonyl]piperazin-2-one]
2130 nM	COc1cc2c(cc1-c1cncc(C(N)=O)c1)-c1c(c(C(=O)N3CCNC(=O)C3(C)C)nn1CC(C)C)CC2 [Compound 13-09, 5-[3-(2,2-dimethyl-3-oxo-piperazine-1-carbonyl)-1-isobutyl-7-methoxy-4,5-dihydrobenzo[g]indazol-8-yl]pyridine-3-carboxamide]
13800 nM	COc1cc2c(cc1-c1cncc(C(N)=O)c1)-c1c(c(C(=O)N3CCNC(=O)C3(C)C)nn1CC(C)C)CC2 [Compound 14-03]
